Values quoted from earlier work in patent publication US5659037A, “Process for preparing chiral tetracyclic dopaminergic compounds” (Abbott Laboratories, priority 1995, dated 1997).

Legend:
dopamine D1 = details: Nichols U.S. Pat. No. 5,047,536; WO 93/24462; Brewster et al. (1990)
adenylate cyclase = details: Knoerzer et al., J. Med. Chem., 37:2453-60 (1994)
[1] = Seeman, Pharmacol. Rev. 32:2:229 (1980)

Cc1ccc2c(c1)[C@@H]1c3cc(O)c(O)cc3CC[C@H]1NC2 (relative stereo) [2-methyl derivative]
dopamine D1 agonist activity (dopamine D1): potent and selective dopamine D1 agonists

Oc1cc2c(cc1O)[C@@H]1c3ccccc3CN[C@H]1CC2 (relative stereo) [dihydrexidine, trans-10,11-dihydroxy-5,6,6a,7,8,12b-hexahydrobenzo[a]phenanthridine]
dopamine D1 agonist activity (dopamine D1): potent and selective dopamine D1 agonists

Oc1cc2c(cc1O)[C@@H]1c3ccccc3CN[C@H]1CC2 [6aS,12bR-(-)-isomer]
activity in an adenylate cyclase assay (adenylate cyclase): inactive

NC1CCc2cc(O)c(O)cc2C1 (stereo not shown) [ADTN, 2-amino-6,7-dihydroxy-1,2,3,4-tetrahydronaphthalene]
dopamine agonist activity [1]: greatest activity in its chiral (R)-(+)-isomeric form
